We go through eight molecules from PubChem BioAssay (NCI).

Test systems include A498 renal; ACHN renal; HL-60(TB) leukemia; HOP-92 NSCLC; HT29 colon; IGROV1 ovarian; MALME-3M melanoma; MDA-MB-435; MDA-N; NCI-H522 lung; OVCAR-4 ovarian; OVCAR-8 ovarian; SK-MEL-28 melanoma; SK-OV-3 ovarian; TK-10 renal; UACC-257 melanoma; UACC-62 melanoma; SNB-75 CNS; SR leukemia.
Holding throughout (assay): inhibition of tumour cell growth, NCI panel, 48 h

SMILES strings stand for the structures.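 All cell lines were grown in 96-well plates and treated with compound for 48 hours. TGI: total growth inhibition.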

As to `N#CCCCCC12C3C(=O)N(c4ccccc4)C(=O)C3ON1O[C@@H]1C(=O)N(c3ccccc3)C(=O)[C@@H]12` (stereo partly specified), the TGI in the experiment on A498 renal, in the experiment with ACHN renal, with HL-60(TB) leukemia, in the experiment with HOP-92 NSCLC, in the experiment with HT29 colon and with IGROV1 ovarian was above 100 µM each time. Besides, the TGI in the experiment with MALME-3M melanoma, in the experiment on MDA-MB-435, in the experiment with MDA-N, with NCI-H522 lung, in the experiment on OVCAR-4 ovarian and in the experiment with OVCAR-8 ovarian was above 100 µM in each case. The TGI in the experiment on SK-MEL-28 melanoma, in the experiment on SK-OV-3 ovarian, with TK-10 renal, in the experiment with UACC-257 melanoma and in the experiment on UACC-62 melanoma was above 100 µM throughout.
On to `Cc1cc(O)c(/C=N/C(=O)NN)c(=O)o1`, for which the TGI in the experiment on ACHN renal, in the experiment on HOP-92 NSCLC, with IGROV1 ovarian, with MDA-MB-435, in the experiment with MDA-N and in the experiment on NCI-H522 lung was above 100 µM throughout. The TGI in the experiment with OVCAR-4 ovarian, in the experiment with OVCAR-8 ovarian, with SK-MEL-28 melanoma, in the experiment with SK-OV-3 ovarian, with SNB-75 CNS and in the experiment with TK-10 renal was above 100 µM each time. Moreover, the TGI in the experiment with UACC-257 melanoma and with UACC-62 melanoma was above 100 µM in each case.
In the case of `FC(F)(F)c1nc2cc(SSc3cc4nc(C(F)(F)F)[nH]c4cc3Cl)c(Cl)cc2[nH]1`, the TGI with A498 renal, with ACHN renal, in the experiment with HL-60(TB) leukemia, in the experiment on HT29 colon, with IGROV1 ovarian and with MALME-3M melanoma was above 100 µM throughout. In addition, the TGI in the experiment with MDA-MB-435, with NCI-H522 lung, in the experiment with OVCAR-4 ovarian, in the experiment on OVCAR-8 ovarian, with SK-MEL-28 melanoma and with SK-OV-3 ovarian was above 100 µM throughout. Besides, the TGI in the experiment with TK-10 renal, in the experiment with UACC-257 melanoma and in the experiment on UACC-62 melanoma was above 100 µM in each case.
`CCCCCCCCC[C@@H]1C[C@@H]2CCC3C(C(=O)OCCCCNC(=O)OCc4ccccc4)=C(C)NC(=N1)N32` (stereo partly specified): the TGI was determined as 18.9 µM in the experiment on A498 renal; 12.2 µM with ACHN renal; 4.01 µM in the experiment on HL-60(TB) leukemia; 7.08 µM with HOP-92 NSCLC; 12.9 µM in the experiment with HT29 colon; 6.11 µM in the experiment with IGROV1 ovarian. The TGI amounted to 9.82 µM with MDA-MB-435; 6.01 µM in the experiment on NCI-H522 lung; 21.3 µM in the experiment with OVCAR-4 ovarian; 8.7 µM in the experiment on OVCAR-8 ovarian; 13.5 µM in the experiment on SK-MEL-28 melanoma; 8.74 µM with SK-OV-3 ovarian. For the same molecule, the TGI was 16.9 µM with SNB-75 CNS, 17.7 µM in the experiment with TK-10 renal, 12.2 µM with UACC-257 melanoma and 13.7 µM in the experiment with UACC-62 melanoma.
Take `Nc1ccc(S(=O)(=O)c2ccc(N=[N+]([O-])c3ccc(S(=O)(=O)c4ccc(N)cc4)cc3)cc2)cc1`: the TGI was above 85.1 µM in the experiment on A498 renal; above 100 µM with ACHN renal; above 100 µM with HL-60(TB) leukemia; 38.4 µM in the experiment with HOP-92 NSCLC; above 100 µM in the experiment on HT29 colon; above 100 µM in the experiment on IGROV1 ovarian. The TGI is above 100 µM in the experiment with MALME-3M melanoma; above 100 µM with MDA-MB-435; above 74 µM in the experiment on NCI-H522 lung; above 62.6 µM in the experiment with OVCAR-4 ovarian; above 100 µM with OVCAR-8 ovarian; above 100 µM in the experiment on SK-MEL-28 melanoma. Besides, the TGI with SK-OV-3 ovarian is above 90.6 µM; in the experiment with SNB-75 CNS, 37.1 µM; in the experiment on SR leukemia, above 100 µM; with TK-10 renal, above 88 µM; in the experiment on UACC-257 melanoma it was above 100 µM; in the experiment on UACC-62 melanoma, above 100 µM.
Turning to `CC(C(O)c1ccccc1)[N+](=O)[O-]` (stereo unspecified), the TGI in the experiment on A498 renal came out at 36.3 µM; in the experiment with ACHN renal, 33.7 µM; in the experiment with HL-60(TB) leukemia, 44.6 µM; in the experiment with HT29 colon it was 71.8 µM; with IGROV1 ovarian, 34.4 µM; in the experiment with MALME-3M melanoma it was 48.4 µM. The TGI with MDA-MB-435 is 38.2 µM; in the experiment with NCI-H522 lung it was 22.9 µM; in the experiment with OVCAR-4 ovarian, 52.6 µM; with OVCAR-8 ovarian it was 35 µM; in the experiment with SK-MEL-28 melanoma, 41.5 µM; in the experiment with SNB-75 CNS, above 100 µM. Further, the TGI with SR leukemia is 9.82 µM; with TK-10 renal, 72 µM; with UACC-257 melanoma, 31.7 µM; with UACC-62 melanoma it was 37.2 µM.
With `CC1(C)CC(=O)C2=C(C1)N(c1ccccc1)C1(O)C=CC(=O)C3=C(O)c4ccccc4C(=O)C321` (stereo unspecified), the TGI is 46.2 µM in the experiment with ACHN renal; above 100 µM with HL-60(TB) leukemia; 58.5 µM in the experiment with HOP-92 NSCLC; 54 µM in the experiment on HT29 colon; 75.5 µM in the experiment on IGROV1 ovarian; 66.8 µM in the experiment on MALME-3M melanoma. The TGI is 54 µM in the experiment on MDA-MB-435; 45.8 µM in the experiment with NCI-H522 lung; 43.9 µM with OVCAR-4 ovarian; above 100 µM in the experiment on OVCAR-8 ovarian; 39.3 µM in the experiment with SK-MEL-28 melanoma; above 100 µM in the experiment on SK-OV-3 ovarian. Moreover, the TGI with SNB-75 CNS was 48.6 µM; in the experiment with SR leukemia, 56.4 µM; in the experiment on TK-10 renal, 52.2 µM; in the experiment with UACC-257 melanoma it was above 100 µM; in the experiment with UACC-62 melanoma, 63.5 µM.
Regarding `Cc1ccc(-c2nc3n(c2/C=N\N=C(N)N)CCS3)cc1`, the TGI in the experiment with A498 renal amounted to 30.5 µM; with ACHN renal, 28.2 µM; in the experiment on HL-60(TB) leukemia it was 78.3 µM; in the experiment with HOP-92 NSCLC, 34 µM; in the experiment on HT29 colon, 27.3 µM; in the experiment with IGROV1 ovarian it was 28.3 µM. Also, the TGI worked out at 31.2 µM in the experiment on MALME-3M melanoma; 28.9 µM in the experiment with MDA-MB-435; 18.1 µM with NCI-H522 lung; 30.3 µM in the experiment with OVCAR-4 ovarian; 29.3 µM in the experiment with OVCAR-8 ovarian; 29.4 µM in the experiment with SK-MEL-28 melanoma. The TGI is 29 µM in the experiment with SK-OV-3 ovarian; 23.2 µM with SNB-75 CNS; above 100 µM in the experiment with SR leukemia; 33.1 µM in the experiment on TK-10 renal; 30.5 µM in the experiment on UACC-257 melanoma; 32.1 µM with UACC-62 melanoma.
